The text below walks through data of article PMC4441267.

A short description of this data set: CuAAC macrocyclisation to 1,4-triazole (CuI 2 eq, DIPEA 3 eq), Boc retained. Particulars: THF (reflux), 1.2 mM, 66.0 °C, 18.0 h.

Where the note is “from C#CCCCC(=O)NCCCC[C@H](NC(=O)OC(C)(C)C)C(=O)N[C@@H](CCC(=O)N[C@@H](CCCCN=[N+]=[N-])C(=O)OC)C(=O)OC, 25-membered ring”, `COC(=O)[C@@H]1CCCCn2cc(nn2)CCCC(=O)NCCCC[C@H](NC(=O)OC(C)(C)C)C(=O)N[C@H](C(=O)OC)CCC(=O)N1` [Boc-Lys(5-hexynoyl)-Glu(gamma-Lys(N3)-OMe)-OMe] displayed a ring closure, isolated yield of 70%.
As to `COC(=O)[C@@H]1CCCCn2cc(nn2)CCC(=O)NCCC[C@H](NC(=O)OC(C)(C)C)C(=O)N[C@H](C(=O)OC)CCC(=O)N1` [Boc-Orn(4-pentynoyl)-Glu(gamma-Lys(N3)-OMe)-OMe], for the setting “from C#CCCC(=O)NCCC[C@H](NC(=O)OC(C)(C)C)C(=O)N[C@@H](CCC(=O)N[C@@H](CCCCN=[N+]=[N-])C(=O)OC)C(=O)OC, 23-membered ring”, the ring closure, isolated yield worked out at 71%.
`COC(=O)[C@@H]1CCCCn2cc(nn2)CCC(=O)NC[C@H](NC(=O)OC(C)(C)C)C(=O)N[C@H](C(=O)OC)CCC(=O)N1` [Boc-Dap(4-pentynoyl)-Glu(gamma-Lys(N3)-OMe)-OMe]: the ring closure, isolated yield (from C#CCCC(=O)NC[C@H](NC(=O)OC(C)(C)C)C(=O)N[C@@H](CCC(=O)N[C@@H](CCCCN=[N+]=[N-])C(=O)OC)C(=O)OC, 21-membered ring) was 94%.
As to `COC(=O)[C@@H]1CCCCn2cc(nn2)CCCC(=O)NCCC[C@H](NC(=O)OC(C)(C)C)C(=O)N[C@H](C(=O)OC)CCC(=O)N1` [Boc-Orn(5-hexynoyl)-Glu(gamma-Lys(N3)-OMe)-OMe], under “from C#CCCCC(=O)NCCC[C@H](NC(=O)OC(C)(C)C)C(=O)N[C@@H](CCC(=O)N[C@@H](CCCCN=[N+]=[N-])C(=O)OC)C(=O)OC, 24-membered ring”, the ring closure, isolated yield stood at 99%.
`COC(=O)[C@@H]1CCCCn2cc(nn2)CNC(=O)NC[C@H](NC(=O)OC(C)(C)C)C(=O)N[C@H](C(=O)OC)CCC(=O)N1` [Boc-Dap(CONH-propargyl)-Glu(gamma-Lys(N3)-OMe)-OMe]: where the note is “from C#CCNC(=O)NC[C@H](NC(=O)OC(C)(C)C)C(=O)N[C@@H](CCC(=O)N[C@@H](CCCCN=[N+]=[N-])C(=O)OC)C(=O)OC, 21-membered ring”, the ring closure, isolated yield worked out at 99%.
